PubChem BioAssay AID248 (DTP/NCI, 2004)
Several values for one entry are separate records, joined by “and”; a condition that tells them apart may be missing. Identical values can stand only once. Inconclusive results and toxic doses are left out.

Tested on: L1210 leukemia ip in BDF1 mice, survival T/C
Assay: NCI In Vivo Anticancer Drug Screen. Data for tumor model L1210 Leukemia (intraperitoneal) in B6D2F1 (BDF1) mice
Conditions: endpoint: mean survival time, higher = longer survival
Outline: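 Ratio derived from survival: compound-dosed mice over vehicle-dosed mice, all bearing a transplantable tumor.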

[1] = dose: 10.0 mg/kg/injection, schedule: Q01DX001 (ip), vehicle: saline
[2] = dose: 20.0 mg/kg/injection, schedule: Q01DX001 (ip), vehicle: saline
[3] = dose: 50.0 mg/kg/injection, schedule: Q01DX001 (ip), vehicle: saline
[4] = dose: 100.0 mg/kg/injection, schedule: Q01DX001 (ip), vehicle: saline
[5] = dose: 100.0 mg/kg/injection, schedule: Q01DX009 (ip), vehicle: Klucel (hydroxypropylcellulose) (HPC)
[6] = dose: 100.0 mg/kg/injection, schedule: Q04DX002 (ip), vehicle: Klucel (hydroxypropylcellulose) (HPC)
[7] = dose: 200.0 mg/kg/injection, schedule: Q01DX001 (ip), vehicle: saline
[8] = dose: 200.0 mg/kg/injection, schedule: Q04DX002 (ip), vehicle: Klucel (hydroxypropylcellulose) (HPC)
[9] = dose: 400.0 mg/kg/injection, schedule: Q01DX001 (ip), vehicle: saline
[10] = dose: 400.0 mg/kg/injection, schedule: Q01DX009 (ip), vehicle: Klucel (hydroxypropylcellulose) (HPC)
[11] = dose: 400.0 mg/kg/injection, schedule: Q04DX002 (ip), vehicle: Klucel (hydroxypropylcellulose) (HPC)
[12] = dose: 100.0 mg/kg/injection, schedule: Q04DX003 (ip), vehicle: saline with Tween-80
[13] = dose: 200.0 mg/kg/injection, schedule: Q04DX003 (ip), vehicle: saline with Tween-80
[14] = dose: 400.0 mg/kg/injection, schedule: Q04DX003 (ip), vehicle: saline with Tween-80
[15] = dose: 50.0 mg/kg/injection, schedule: Q01DX009 (ip), vehicle: saline
[16] = dose: 100.0 mg/kg/injection, schedule: Q04DX003 (ip), vehicle: Klucel (hydroxypropylcellulose) (HPC)
[17] = dose: 200.0 mg/kg/injection, schedule: Q04DX003 (ip), vehicle: Klucel (hydroxypropylcellulose) (HPC)
[18] = dose: 400.0 mg/kg/injection, schedule: Q04DX003 (ip), vehicle: Klucel (hydroxypropylcellulose) (HPC)

## C(=N\NC1=NCCN1)/c1ccccc1
dose: 2.5 mg/kg/injection, schedule: Q01DX009 (ip), vehicle: saline
  T/C: 101 % of control
dose: 5.0 mg/kg/injection, schedule: Q01DX009 (ip), vehicle: saline
  T/C: 97 % of control
dose: 5.0 mg/kg/injection, schedule: Q04DX003 (ip), vehicle: saline
  T/C: 97 % of control
[1]
  T/C: 105 % of control
dose: 10.0 mg/kg/injection, schedule: Q01DX009 (ip), vehicle: saline
  T/C: 93 % of control
dose: 10.0 mg/kg/injection, schedule: Q04DX003 (ip), vehicle: saline
  T/C: 94 % of control
[2]
  T/C: 104 % of control
dose: 20.0 mg/kg/injection, schedule: Q04DX003 (ip), vehicle: saline
  T/C: 97 % of control

## CNc1c2c(nc3ccccc13)CCCC2
dose: 1.25 mg/kg/injection, schedule: Q01DX009 (ip), vehicle: saline with Tween-80
  T/C: 93 % of control
dose: 1.25 mg/kg/injection, schedule: Q04DX003 (ip), vehicle: saline with Tween-80
  T/C: 97 % of control
dose: 2.5 mg/kg/injection, schedule: Q01DX009 (ip), vehicle: saline with Tween-80
  T/C: 91 % of control
dose: 2.5 mg/kg/injection, schedule: Q04DX003 (ip), vehicle: saline with Tween-80
  T/C: 108 % of control
dose: 5.0 mg/kg/injection, schedule: Q01DX009 (ip), vehicle: saline with Tween-80
  T/C: 89 % of control
dose: 5.0 mg/kg/injection, schedule: Q04DX003 (ip), vehicle: saline with Tween-80
  T/C: 102 % of control

## Cc1ccc2c(c1[N+](=O)[O-])C(=O)c1ccccc1C2=O
[3]
  T/C: 96 % of control
[4]
  T/C: 90 % of control
[5]
  T/C: 100 % of control
[6]
  T/C: 104 % of control
[7]
  T/C: 90 % of control
[8]
  T/C: 110 % of control
[9]
  T/C: 90 % of control
[10]
  T/C: 111 % of control
[11]
  T/C: 96 % of control

## CN1C(=O)N(C)C(=O)C(O)(C2(O)C(=O)N(C)C(=O)N(C)C2=O)C1=O
dose: 9.38 mg/kg/injection, schedule: Q01DX001 (ip), vehicle: other
  T/C: 94 % of control
dose: 18.75 mg/kg/injection, schedule: Q01DX001 (ip), vehicle: other
  T/C: 94 % of control
dose: 37.5 mg/kg/injection, schedule: Q01DX001 (ip), vehicle: other
  T/C: 101 % of control

## NC(=O)OCCOCCOC(N)=O
[12]
  T/C: 98 % of control
[13]
  T/C: 98 % of control
[14]
  T/C: 101 % of control

## [CH3][Sn]([CH3])([CH3])[CH2][Sn]([CH3])([CH3])[CH3]
[15]
  T/C: 101 % of control
dose: 100.0 mg/kg/injection, schedule: Q01DX009 (ip), vehicle: saline
  T/C: 93 % of control and 103 % of control
dose: 200.0 mg/kg/injection, schedule: Q01DX009 (ip), vehicle: saline
  T/C: 98 % of control

## CN(CCN(C)P(=O)(N1CC1)N1CC1)P(=O)(N1CC1)N1CC1
dose: 0.62 mg/kg/injection, schedule: Q01DX Z (ip), vehicle: saline
  T/C: 87 % of control
dose: 1.25 mg/kg/injection, schedule: Q01DX Z (ip), vehicle: saline
  T/C: 90 % of control
dose: 2.5 mg/kg/injection, schedule: Q01DX Z (ip), vehicle: saline
  T/C: 92 % of control
dose: 5.0 mg/kg/injection, schedule: Q01DX Z (ip), vehicle: saline
  T/C: 108 % of control
dose: 20.0 mg/kg/injection, schedule: Q01DX Z (ip), vehicle: saline
  T/C: 156 % of control

## CCN(CCNS(C)(=O)=O)c1ccc(N)c(C)c1
dose: 3.12 mg/kg/injection, schedule: Q01DX009 (ip), vehicle: saline
  T/C: 101 % of control
dose: 6.25 mg/kg/injection, schedule: Q01DX009 (ip), vehicle: saline
  T/C: 91 % of control
dose: 12.5 mg/kg/injection, schedule: Q01DX009 (ip), vehicle: saline
  T/C: 99 % of control and 92 % of control

## CCN(CC)CC(C)OC(=O)CCN1CC1 (stereo not drawn)
dose: 3.0 mg/kg/injection, schedule: Q01DX009 (ip), vehicle: saline
  T/C: 100 % of control
dose: 6.0 mg/kg/injection, schedule: Q01DX009 (ip), vehicle: saline
  T/C: 106 % of control
dose: 12.0 mg/kg/injection, schedule: Q01DX009 (ip), vehicle: saline
  T/C: 103 % of control
dose: 25.0 mg/kg/injection, schedule: Q01DX009 (ip), vehicle: saline
  T/C: 101 % of control
dose: 25.0 mg/kg/injection, schedule: Q04DX003 (ip), vehicle: saline
  T/C: 108 % of control
[15]
  T/C: 95 % of control
dose: 50.0 mg/kg/injection, schedule: Q04DX003 (ip), vehicle: saline
  T/C: 101 % of control
dose: 100.0 mg/kg/injection, schedule: Q04DX003 (ip), vehicle: saline
  T/C: 97 % of control and 111 % of control
dose: 200.0 mg/kg/injection, schedule: Q04DX003 (ip), vehicle: saline
  T/C: 103 % of control

## CC(C)(C)c1ccc(OC(=S)Nc2ccccc2)cc1
[12]
  T/C: 111 % of control
[13]
  T/C: 111 % of control
[14]
  T/C: 103 % of control

## CCN(CC)Cc1ccccc1COC(=O)c1ccc([N+](=O)[O-])cc1
[6]
  T/C: 97 % of control
[8]
  T/C: 94 % of control
[11]
  T/C: 101 % of control

## CCOC(=O)c1cc(C(=O)OC)[nH]c(=O)c1C#N
[5]
  T/C: 93 % of control
[16]
  T/C: 92 % of control
dose: 200.0 mg/kg/injection, schedule: Q01DX009 (ip), vehicle: Klucel (hydroxypropylcellulose) (HPC)
  T/C: 92 % of control
[17]
  T/C: 92 % of control
[10]
  T/C: 90 % of control
[18]
  T/C: 88 % of control

## CCCCCCCCCCCCNC1=C(Cl)C(=O)c2ccccc2C1=O
dose: 1.0 mg/kg/injection, schedule: Q01DX Z (ip), vehicle: methylcellulose (MC)
  T/C: 94 % of control
dose: 2.2 mg/kg/injection, schedule: Q01DX Z (ip), vehicle: methylcellulose (MC)
  T/C: 89 % of control

## Cc1ncc(/C=N/O)n1Cc1ccccc1
dose: 100.0 mg/kg/injection, schedule: Q01DX001 (ip), vehicle: other
  T/C: 97 % of control and 90 % of control
[6]
  T/C: 98 % of control
dose: 100.0 mg/kg/injection, schedule: Q04DX002 (ip), vehicle: other
  T/C: 94 % of control and 96 % of control
dose: 100.0 mg/kg/injection, schedule: Q04DX003 (ip), vehicle: other
  T/C: 97 % of control
dose: 200.0 mg/kg/injection, schedule: Q01DX001 (ip), vehicle: other
  T/C: 94 % of control and 97 % of control
[8]
  T/C: 94 % of control
dose: 200.0 mg/kg/injection, schedule: Q04DX002 (ip), vehicle: other
  T/C: 99 % of control and 105 % of control
dose: 200.0 mg/kg/injection, schedule: Q04DX003 (ip), vehicle: other
  T/C: 97 % of control and 100 % of control
dose: 400.0 mg/kg/injection, schedule: Q01DX001 (ip), vehicle: other
  T/C: 93 % of control and 91 % of control
[11]
  T/C: 105 % of control
dose: 400.0 mg/kg/injection, schedule: Q04DX002 (ip), vehicle: other
  T/C: 99 % of control and 92 % of control
dose: 400.0 mg/kg/injection, schedule: Q04DX003 (ip), vehicle: other
  T/C: 89 % of control and 90 % of control

## Cc1ccc(N=Cc2cc(I)cc(I)c2O)cc1.Cc1ccc(N=Cc2cc(I)cc(I)c2O)cc1.[Co]
[12]
  T/C: 92 % of control
[13]
  T/C: 102 % of control and 91 % of control
[14]
  T/C: 96 % of control and 89 % of control

## OCC(O)C(O)C(O)C(c1ccccc1)c1ccccc1 (stereo not drawn)
[3]
  T/C: 107 % of control
[4]
  T/C: 98 % of control
[7]
  T/C: 96 % of control
[9]
  T/C: 98 % of control

## Cc1ccc(C)c(CCCC(=O)O)c1
dose: 100.0 mg/kg/injection, schedule: Q01DX009 (ip), vehicle: saline with Tween-80
  T/C: 96 % of control
[16]
  T/C: 105 % of control
dose: 200.0 mg/kg/injection, schedule: Q01DX009 (ip), vehicle: saline with Tween-80
  T/C: 93 % of control
[17]
  T/C: 94 % of control
dose: 400.0 mg/kg/injection, schedule: Q01DX009 (ip), vehicle: saline with Tween-80
  T/C: 104 % of control
[18]
  T/C: 100 % of control

## CC(C)CCNCC(C)(C)OC(=O)c1ccc(N)cc1
[1]
  T/C: 112 % of control
[2]
  T/C: 100 % of control
dose: 40.0 mg/kg/injection, schedule: Q01DX001 (ip), vehicle: saline
  T/C: 102 % of control

## CCN=C(N)c1ccc(N=C(N)c2cccc(C(N)=Nc3ccc(C(N)=NCC)cc3)c2)cc1
dose: 3.75 mg/kg/injection, schedule: Q01DX Z (ip), vehicle: saline
  T/C: 104 % of control
dose: 15.0 mg/kg/injection, schedule: Q01DX Z (ip), vehicle: saline
  T/C: 120 % of control
